Measurements from patent US10570122B2, “Compounds with anti-tumoral activity” (AB Science, priority 2015, dated 2020).
Entries after “also recorded” stand apart in the source; their conditions may differ.

Key:
U118 = experiment: CellTiter-Blue cell-based survival/proliferation assay, U118; conditions: Homo sapiens; U118 glioblastoma cell line, 48 h
How it was run: (§1)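 Compounds, diluted tenfold serially over 0–10 μM, are applied to 1·10^4 seeded cells per well for 48 h at 37 °C. Resorufin formed during a further 4 h with CellTiter-Blue is detected by fluorescence emission at 590 nm.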

SW579 = experiment: CellTiter-Blue cell-based survival/proliferation assay, SW579; conditions: Homo sapiens; SW579 head & neck tumor cell line, 48 h
How it was run: as §1

BT20 = experiment: CellTiter-Blue cell-based survival/proliferation assay, BT20; conditions: Homo sapiens, BT-20; BT20 breast tumor cell line, 48 h
How it was run: as §1

DU145 = experiment: CellTiter-Blue cell-based survival/proliferation assay, DU145; conditions: Homo sapiens, DU-145; DU145 prostate tumor cell line, 48 h
How it was run: as §1

KARPAS299 = experiment: CellTiter-Blue cell-based survival/proliferation assay, KARPAS299; conditions: Homo sapiens, KARPAS-299, Lymphoma cell line KARPAS299, 48 h, read-out: Anti-tumoral activity (measured IC50) KARPAS299
How it was run: as §1

A375 = experiment: CellTiter-Blue cell-based survival/proliferation assay, A375; conditions: Homo sapiens, A-375; A375 melanoma cell line, 48 h
How it was run: as §1

TOV112D = experiment: CellTiter-Blue cell-based survival/proliferation assay, TOV112D; conditions: Homo sapiens; TOV112D ovary tumor cell line, 48 h
How it was run: as §1

CLS354 = experiment: CellTiter-Blue cell-based survival/proliferation assay, CLS354; conditions: Homo sapiens, CLS-354; CLS354_4 head & neck tumor cell line, 48 h
How it was run: as §1

U2OS = experiment: CellTiter-Blue cell-based survival/proliferation assay, U2OS; conditions: Homo sapiens; U2OS osteosarcoma cell line, 48 h
How it was run: as §1

PC3 = experiment: CellTiter-Blue cell-based survival/proliferation assay, PC3; conditions: Homo sapiens, PC-3; PC3 prostate tumor cell line, 48 h
How it was run: as §1

MDAMB231 = experiment: CellTiter-Blue cell-based survival/proliferation assay, MDAMB231; conditions: Homo sapiens, MDA-MB-231; MDAMB231 breast tumor cell line, 48 h
How it was run: as §1

CALU6 = experiment: CellTiter-Blue cell-based survival/proliferation assay, CALU6; conditions: Homo sapiens, Calu-6; CALU6 lung tumor cell line, 48 h
How it was run: as §1

HCT116 = experiment: CellTiter-Blue cell-based survival/proliferation assay, HCT116; conditions: Homo sapiens, HCT-116; HCT116 colorectal tumor cell line, 48 h
How it was run: as §1

BXPC3 = experiment: CellTiter-Blue cell-based survival/proliferation assay, BXPC3; conditions: Homo sapiens, BXPC-3; BXPC3 pancreas tumor cell line, 48 h
How it was run: as §1

HGC27 = experiment: CellTiter-Blue cell-based survival/proliferation assay, HGC27; conditions: Homo sapiens, HGC-27; HGC27 stomach tumor cell line, 48 h
How it was run: as §1

U87MG = experiment: CellTiter-Blue cell-based survival/proliferation assay, U87MG; conditions: Homo sapiens, U-87 MG; U87_MG glioblastoma cell line, 48 h
How it was run: as §1

AGS = experiment: CellTiter-Blue cell-based survival/proliferation assay, AGS; conditions: Homo sapiens; AGS stomach tumor cell line, 48 h
How it was run: as §1

DLD1 = experiment: CellTiter-Blue cell-based survival/proliferation assay, DLD1; conditions: Homo sapiens, DLD-1; DLD_1 colorectal tumor cell line, 48 h
How it was run: as §1

PANC1 = experiment: CellTiter-Blue cell-based survival/proliferation assay, PANC1; conditions: Homo sapiens, PANC-1; PANC_1 pancreas tumor cell line, 48 h
How it was run: as §1

OPM2 = experiment: CellTiter-Blue cell-based survival/proliferation assay, OPM2; conditions: Homo sapiens, OPM-2, Myeloma cell line OPM2, 48 h, read-out: Anti-tumoral activity (measured IC50) OPM2
How it was run: as §1

A4513 = experiment: CellTiter-Blue cell-based survival/proliferation assay, A4513; conditions: Homo sapiens; A4513 Ewing cell line, 48 h
How it was run: as §1

A498 = experiment: CellTiter-Blue cell-based survival/proliferation assay, A498; conditions: Homo sapiens; A498 kidney tumor cell line, 48 h
How it was run: as §1

MELWO = experiment: CellTiter-Blue cell-based survival/proliferation assay, MELWO; conditions: Homo sapiens; MEL_WO melanoma cell line, 48 h
How it was run: as §1

[1] = system: human kinases (456 kinases); experiment: KINOMEscan in vitro kinase profiling; type: binding; conditions: for Interaction with the 456 kinases tested: screened at 1 μM; for Number of hits/number of kinases, S1: S(1): kinases with % Ctrl<1; for S-score, S1: S(1)=(number of kinases with % Ctrl<1)/(number of kinases tested); for Number of hits/number of kinases, S10: S(10): kinases with % Ctrl<10; for S-score, S10: S(10)=(number of kinases with % Ctrl<10)/(number of kinases tested); for Kinase targets, S1: kinases with % Ctrl<1
Description: An in vitro kinase profiling was conducted in order to evidence the absence of protein kinase inhibition by the compounds of the invention.
DiscoveRx (Ambit Biosciences) has developed a high-throughput system (KINOMEscan™) for screening of compounds against large numbers of human kinases (456 kinases).
The compounds of the invention were screened at the concentration of 1 μM, and results for primary screen binding interactions were reported as percent control (% Ctrl), where lower numbers indicate stronger hits. DMSO is used as a negative control (100% Ctrl) while a high affinity compound is used as a positive control (0% Ctrl). % Ctrl is calculated as follow:
[formula] Selectivity Score or S-score is a quantitative measure of compound selectivity. It is calculated by dividing the number of kinases that compounds bind to by the total number of distinct kinases tested, excluding mutant variants. S(10)=(number of kinases with % Ctrl<10)/(number of kinases tested), S(1)=(number of kinases with % Ctrl<1)/(number of kinases tested).

A549 = experiment: CellTiter-Blue cell-based survival/proliferation assay, A549; conditions: Homo sapiens; A549 lung tumor cell line, 48 h
How it was run: as §1

MESSA = experiment: CellTiter-Blue cell-based survival/proliferation assay, MESSA; conditions: Homo sapiens, MES-SA; MESSA ovary tumor cell line, 48 h
How it was run: as §1

ACHN = experiment: CellTiter-Blue cell-based survival/proliferation assay, ACHN; conditions: Homo sapiens; ACHN kidney tumor cell line, 48 h
How it was run: as §1

HUT78 = experiment: CellTiter-Blue cell-based survival/proliferation assay, HUT78; conditions: Homo sapiens, Lymphoma cell line HUT78, 48 h, read-out: Anti-tumoral activity (measured IC50) HUT78
How it was run: as §1

HL60 = experiment: CellTiter-Blue cell-based survival/proliferation assay, HL60; conditions: Homo sapiens, HL-60, Leukemia cell line HL60, 48 h, read-out: Anti-tumoral activity (measured IC50) HL60
How it was run: as §1

HEPG2 = experiment: CellTiter-Blue cell-based survival/proliferation assay, HEPG2; conditions: Homo sapiens; HEPG2 liver tumor cell line, 48 h
How it was run: as §1

REC1 = experiment: CellTiter-Blue cell-based survival/proliferation assay, REC1; conditions: Homo sapiens, Lymphoma cell line REC1, 48 h, read-out: Anti-tumoral activity (measured IC50) REC1
How it was run: as §1

PLCPRF5 = experiment: CellTiter-Blue cell-based survival/proliferation assay, PLCPRF5; conditions: Homo sapiens, PLC-PRF-5; PLC_PRF5 liver tumor cell line, 48 h
How it was run: as §1

HEP2 = experiment: CellTiter-Blue cell-based survival/proliferation assay, HEP2; conditions: Homo sapiens, HEp-2; HEP2 head & neck tumor cell line, 48 h
How it was run: as §1

H1299 = experiment: CellTiter-Blue cell-based survival/proliferation assay, H1299; conditions: Homo sapiens, NCI-H1299; H1299 lung tumor cell line, 48 h
How it was run: as §1

| Structure (SMILES) | IC50 (U118) | IC50 (SW579) | IC50 (BT20) | IC50 (DU145) | IC50 (KARPAS299) | IC50 (A375) | IC50 (TOV112D) | IC50 (CLS354) | IC50 (U2OS) | IC50 (PC3) | IC50 (MDAMB231) | IC50 (CALU6) | IC50 (HCT116) | IC50 (BXPC3) | IC50 (HGC27) | IC50 (U87MG) | IC50 (AGS) | IC50 (DLD1) | IC50 (PANC1) | IC50 (OPM2) | further results |
| --- | --- | --- | --- | --- | --- | --- | --- | --- | --- | --- | --- | --- | --- | --- | --- | --- | --- | --- | --- | --- | --- |
| CCOCc1ccc(C)c(Nc2nc(-c3ccc(N4CCNC4=O)cc3)cs2)c1 [Example 003, 1-{4-[2-(5-Ethoxymethyl-(2-methyl-phenylamino))-thiazol-4-yl]-phenyl}-imidazolidin-2-one] | > 1000 nM | > 1000 nM | > 1000 nM | > 1000 nM | ≤ 100 nM | ≤ 100 nM | ≤ 100 nM | ≤ 100 nM | > 1000 nM | ≤ 100 nM | ≤ 100 nM | > 1000 nM | 500 to 1000 nM | ≤ 100 nM | > 1000 nM | > 1000 nM | > 1000 nM | ≤ 100 nM | > 1000 nM | ≤ 100 nM | IC50 (A4513): ≤ 100 nM; IC50 (A498): ≤ 100 nM; IC50 (MELWO): ≤ 100 nM; Interaction with the 456 kinases tested [1]: do not efficiently interact; Number of hits/number of kinases, S1 ([1]; tested at 1 μM): 1/456; S-score, S1 ([1]; tested at 1 μM): 0.002; Number of hits/number of kinases, S10 ([1]; tested at 1 μM): 4/456; S-score, S10 ([1]; tested at 1 μM): 0.009; Kinase targets, S1 ([1]; tested at 1 μM): PDGFRB; Kinase targets, S10 ([1]; tested at 1 μM, kinases with % Ctrl<10): KIT, KIT V559D,; also recorded: KIT L576P; IC50 (A549): > 1000 nM; IC50 (MESSA): 100 to 500 nM; IC50 (ACHN): ≤ 100 nM; IC50 (HUT78): ≤ 100 nM; IC50 (HL60): ≤ 100 nM; IC50 (HEPG2): > 1000 nM; IC50 (REC1): ≤ 100 nM; IC50 (PLCPRF5): > 1000 nM; IC50 (HEP2): > 1000 nM; IC50 (H1299): > 1000 nM |
| CCOCc1ccc(C)c(Nc2ncc(-c3ccc(N4CCNC4=O)cc3)o2)c1 [Example 006, 1-{4-[2-(5-Ethoxymethyl-(2-methyl-phenylamino))-oxazol-5-yl]-phenyl}-imidazolidin-2-one] | > 1000 nM | > 1000 nM | 100 to 500 nM | > 1000 nM | ≤ 100 nM | ≤ 100 nM | ≤ 100 nM | ≤ 100 nM | 100 to 500 nM | ≤ 100 nM | ≤ 100 nM | > 1000 nM | > 1000 nM | ≤ 100 nM | > 1000 nM | > 1000 nM | > 1000 nM | ≤ 100 nM | > 1000 nM | ≤ 100 nM | IC50 (A4513): ≤ 100 nM; IC50 (A498): 100 to 500 nM; IC50 (MELWO): ≤ 100 nM; Interaction with the 456 kinases tested [1]: do not efficiently interact; Number of hits/number of kinases, S1 ([1]; tested at 1 μM): 0/456; S-score, S1 ([1]; tested at 1 μM): 0.000; Number of hits/number of kinases, S10 ([1]; tested at 1 μM): 0/456; S-score, S10 ([1]; tested at 1 μM): 0.000; Kinase targets, S1 ([1]; tested at 1 μM): None; IC50 (A549): > 1000 nM; IC50 (MESSA): > 1000 nM; IC50 (ACHN): ≤ 100 nM; IC50 (HUT78): ≤ 100 nM; IC50 (HL60): ≤ 100 nM; IC50 (HEPG2): > 1000 nM; IC50 (REC1): ≤ 100 nM; IC50 (PLCPRF5): > 1000 nM; IC50 (HEP2): > 1000 nM; IC50 (H1299): > 1000 nM |
| CCOCc1cc(C)cc(Nc2nc(-c3ccc(N4CCNC4=O)cc3)cs2)c1 [Example 018, 1-{4-[2-(3-Ethoxymethyl-(5-methyl-phenylamino))-thiazol-4-yl]-phenyl}-imidazolidin-2-one] | > 1000 nM | > 1000 nM | > 1000 nM | > 1000 nM | ≤ 100 nM | ≤ 100 nM | ≤ 100 nM | ≤ 100 nM | 100 to 500 nM | > 1000 nM | > 1000 nM | > 1000 nM | 100 to 500 nM | > 1000 nM | 500 to 1000 nM | > 1000 nM | > 1000 nM | > 1000 nM | > 1000 nM | ≤ 100 nM | IC50 (A4513): ≤ 100 nM; IC50 (A498): 500 to 1000 nM; IC50 (MELWO): > 1000 nM; IC50 (A549): ≤ 100 nM; IC50 (MESSA): > 1000 nM; IC50 (ACHN): 500 to 1000 nM; IC50 (HUT78): ≤ 100 nM; IC50 (HL60): ≤ 100 nM; IC50 (HEPG2): > 1000 nM; IC50 (REC1): ≤ 100 nM; IC50 (PLCPRF5): > 1000 nM; IC50 (HEP2): ≤ 100 nM; IC50 (H1299): > 1000 nM |
